Experimental findings from patent US20220409694A1, “POLYPEPTIDE, AND PREPARATION METHOD THEREFOR AND USE THEREOF” (SHANXI JINBO BIO-PHARMACEUTICAL CO., LTD., priority 2020, published 2022) are described below.

The subject of assay [1] is cell-cell fusion mediated by the S protein of 2019-nCoV. In kind it is cell-based.
A further assay relates to 2019-nCoV pseudovirus. Conditions: for IC50: 72 h.
Another assay relates to SARS-CoV pseudovirus. The following applies: 72 h.
In another assay the test system is Rs3367-CoV pseudovirus. The following applies: 72 h.
The test system of another assay is WIV1-CoV pseudovirus. Conditions: 72 h.
The subject of another assay is 2019-nCoV live virus. Conditions: for IC50: 72 h; for inhibitory activity relative to EK1, 2019-nCoV live virus: fold higher than EK1.
Assay [2] has as its target T1, 2019-HR1P (derived from the HR1 region of 2019-nCoV) (Severe acute respiratory syndrome coronavirus 2, UniProt P0DTC2). In words: Native PAGE (N-PAGE) of polypeptide mixed with 2019-HR1P. In kind it is binding. The following applies: 30 μM each, 37° C. for 30 minutes.
Assay [3] has as its target T1, 2019-HR1P (derived from the HR1 region of 2019-nCoV). In words: Circular dichroism spectroscopy of polypeptide mixed with 2019-HR1P. It counts as binding. The following applies: 10 μM, phosphate buffer pH 7.2, 4° C. In general terms: Circular dichroism is the unequal absorption of left and right circularly polarised light.
In assay [4] the test system is SARS-CoV-2 live virus (nCoV-SH01 strain). Kind of assay: Inhibition of SARS-CoV-2 live virus on human intestinal cell line CaCO2 (viral RNA in supernatant). It counts as cell-based. Conditions: CaCO2 cells, 48 hours, read-out: half inhibitory concentration, SARS-CoV-2 live virus.
Assay [5] shares this test system. The arrangement: species or system transgenic human-ACE2 mice. The following applies: in vivo.

For the compound `CCCCCCCCCCCCCCCC(=O)NCCCC[C@H](NC(=O)CCOCCOCCOCCOCCNC(=O)CNC(=O)[C@H](CO)NC(=O)CNC(=O)[C@H](CC(C)C)NC(=O)[C@H](CCC(=O)O)NC(=O)[C@H](CCCCN)NC(=O)[C@H](CC(C)C)NC(=O)[C@H](CC(=O)O)NC(=O)[C@@H](NC(=O)[C@H](Cc1ccc(O)cc1)NC(=O)[C@H](CO)NC(=O)[C@H](CCC(=O)O)NC(=O)[C@H](CCC(=O)O)NC(=O)[C@H](CC(C)C)NC(=O)[C@H](CCCCN)NC(=O)[C@H](CCCCN)NC(=O)[C@@H](NC(=O)[C@H](C)NC(=O)[C@H](CCC(=O)O)NC(=O)[C@H](CCC(=O)O)NC(=O)[C@H](CC(C)C)NC(=O)[C@H](CCCCN)NC(=O)[C@H](CCCCN)NC(=O)[C@H](CCSC)NC(=O)[C@H](CCC(=O)O)NC(=O)[C@H](Cc1ccc(O)cc1)NC(=O)[C@H](CCC(=O)O)NC(=O)[C@H](CC(C)C)NC(=O)[C@H](CC(=O)O)NC(=O)[C@H](CC(C)C)NC(=O)[C@H](Cc1ccccc1)NC(=O)[C@@H](NC(=O)[C@@H](NC(=O)[C@H](CC(N)=O)NC(=O)[C@@H](NC(=O)[C@H](CCC(N)=O)NC(=O)[C@H](CC(=O)O)NC(=O)[C@H](CC(C)C)NC(=O)[C@@H](N)CO)[C@@H](C)CC)C(C)C)[C@@H](C)O)[C@@H](C)CC)[C@@H](C)CC)C(=O)O` [EK1-plam], in [1], the “inhibitory effect on cell-cell fusion mediated by the S protein of 2019-nCoV (in words)” value (“inhibitory effect” below) is reported as “very good inhibitory effect”. Besides, the IC50 in the assay on 2019-nCoV pseudovirus was 360 nM; in the assay with SARS-CoV pseudovirus, 170 nM; in the assay on Rs3367-CoV pseudovirus it was 130 nM; in the assay on WIV1-CoV pseudovirus, 100 nM; with 2019-nCoV live virus, 436 nM. In addition, the “inhibitory activity relative to EK1, 2019-nCoV live virus” value with 2019-nCoV live virus was found to be 5 times.
Regarding `CC[C@H](C)[C@H](NC(=O)[C@H](C)NC(=O)[C@H](CCC(=O)O)NC(=O)[C@H](CCC(=O)O)NC(=O)[C@H](CC(C)C)NC(=O)[C@H](CCCCN)NC(=O)[C@H](CCCCN)NC(=O)[C@H](CCSC)NC(=O)[C@H](CCC(=O)O)NC(=O)[C@H](Cc1ccc(O)cc1)NC(=O)[C@H](CCC(=O)O)NC(=O)[C@H](CC(C)C)NC(=O)[C@H](CC(=O)O)NC(=O)[C@H](CC(C)C)NC(=O)[C@H](Cc1ccccc1)NC(=O)[C@@H](NC(=O)[C@@H](NC(=O)[C@H](CC(N)=O)NC(=O)[C@@H](NC(=O)[C@H](CCC(N)=O)NC(=O)[C@H](CC(=O)O)NC(=O)[C@H](CC(C)C)NC(=O)[C@@H](N)CO)[C@@H](C)CC)C(C)C)[C@@H](C)O)C(=O)N[C@@H](CCCCN)C(=O)N[C@@H](CCCCN)C(=O)N[C@@H](CC(C)C)C(=O)N[C@@H](CCC(=O)O)C(=O)N[C@@H](CCC(=O)O)C(=O)N[C@@H](CO)C(=O)N[C@@H](Cc1ccc(O)cc1)C(=O)N[C@H](C(=O)N[C@@H](CC(=O)O)C(=O)N[C@@H](CC(C)C)C(=O)N[C@@H](CCCCN)C(=O)N[C@@H](CCC(=O)O)C(=O)N[C@@H](CC(C)C)C(=O)O)[C@@H](C)CC` [EK1, reference compound], the “inhibitory effect” value in [1] is “very good inhibitory effect”. In addition, the “complex formation with 2019-HR1P in N-PAGE” value in [2] is recorded as “formation of a six-helix bundle complex”. Further, in [3], the “secondary structure of mixture with 2019-HR1P by circular dichroism” value is reported as “formed a 6-HB complex”. In addition, the IC50 in assay [4] was found to be 573 nM; in the assay with 2019-nCoV pseudovirus it was 2490 nM; in the assay with SARS-CoV pseudovirus, 1890 nM; in the assay with Rs3367-CoV pseudovirus, 4000 nM; in the assay on WIV1-CoV pseudovirus, 2940 nM. The “SARS-CoV-2 viral load in the intestine” value in assay [5] is listed as “significantly reduce”. In addition, in assay [5], the “SARS-CoV-2 viral load in the lung” value is listed as “significantly reduce”.
Take “ANQFNSAIGKIQDSLSSTASALGKLQDVVNQNAQALNTLVKQ (SEQ ID NO. 3) [2019-HR1P, reference compound]”: in assay [1], the “inhibitory effect” value is “no activity”. Besides, the “activity in pseudovirus inhibition experiments (in words)” value in the assay on 2019-nCoV pseudovirus was “no activity”.
Consider `CC[C@H](C)[C@H](NC(=O)[C@H](C)NC(=O)[C@H](CCC(=O)O)NC(=O)[C@H](CCC(=O)O)NC(=O)[C@H](CC(C)C)NC(=O)[C@H](CCCCN)NC(=O)[C@H](CCCCN)NC(=O)[C@H](CCSC)NC(=O)[C@H](CCC(=O)O)NC(=O)[C@H](Cc1ccc(O)cc1)NC(=O)[C@H](CCC(=O)O)NC(=O)[C@H](CC(C)C)NC(=O)[C@H](CC(=O)O)NC(=O)[C@H](CC(C)C)NC(=O)[C@H](Cc1ccccc1)NC(=O)[C@@H](NC(=O)[C@@H](NC(=O)[C@H](CC(N)=O)NC(=O)[C@@H](NC(=O)[C@H](CCC(N)=O)NC(=O)[C@H](CC(=O)O)NC(=O)[C@H](CC(C)C)NC(=O)[C@@H](N)CO)[C@@H](C)CC)C(C)C)[C@@H](C)O)C(=O)N[C@@H](CCCCN)C(=O)N[C@@H](CCCCN)C(=O)N[C@@H](CC(C)C)C(=O)N[C@@H](CCC(=O)O)C(=O)N[C@@H](CCC(=O)O)C(=O)N[C@@H](CO)C(=O)N[C@@H](Cc1ccc(O)cc1)C(=O)N[C@H](C(=O)N[C@@H](CC(=O)O)C(=O)N[C@@H](CC(C)C)C(=O)N[C@@H](CCCCN)C(=O)N[C@@H](CCC(=O)O)C(=O)N[C@@H](CC(C)C)C(=O)NCC(=O)N[C@@H](CO)C(=O)NCC(=O)N[C@@H](CO)C(=O)NCC(=O)NCCOCCOCCOCCOCCC(=O)N[C@@H](CSCC(=O)O[C@H]1CC[C@@]2(C)C(=CC[C@H]3[C@@H]4CC[C@H]([C@H](C)CCCC(C)C)[C@@]4(C)CC[C@@H]32)C1)C(=O)O)[C@@H](C)CC` [EK1-chol], for which, in assay [1], the “inhibitory effect” value is reported as “very good inhibitory effect”. For the same compound, the IC50 in assay [4] turned out to be 5.5 nM; with 2019-nCoV pseudovirus it was 20 nM; with SARS-CoV pseudovirus, 10 nM; with Rs3367-CoV pseudovirus, 30 nM; in the assay with WIV1-CoV pseudovirus it was 40 nM; in the assay on 2019-nCoV live virus, 36.5 nM. Besides, the “SARS-CoV-2 viral titer in the intestine” value in [5] was “significantly reduce”. The “SARS-CoV-2 viral titer in the lung” value in assay [5] is recorded as “significantly reduce”. Moreover, the “inhibitory activity relative to EK1, 2019-nCoV live virus” value with 2019-nCoV live virus was found to be 67 times.
